# In patent publication US20120201981A1, “COMBINATIONS OF BIOLOGICAL CONTROL AGENTS WITH A NEMATICIDAL SEED COATING” (priority 2006, published 2012):
# Tests used:
# M. incognita race 1 = test: Tomato miniplot field trial; type: in vivo, Meloidogyne incognita; conditions: P. chlamydosporia 4000 chlamydospores/cm^3 substrate
# Experimental: Nine miniplots (3 m diameter, 12 cm deep) were each filled with approximately 350000-cm^3 field soil (sandy loam, pH 7.2) obtained from an adjacent field with no significant infestation of plant-parasitic nematodes. Tomato seedlings (Lycopersicum esculentum cv. Tiny Tim) were raised from abamectin-treated seed (0.3 mg a.i./seed) or from Apron/Maxim-treated seed. They were seeded in seedling trays with commercial transplant substrate (Sunshine mix). The substrate was either non-amended or amended with P. chlamydosporia (4000 chlamydospores/cm^3 substrate). After 3 weeks in a greenhouse, the seedlings were transplanted into the 9 miniplots. Each plot was a randomized block with 4 treatments and three plants per treatment. Each planting area was infested by distributing 10,000 eggs of M. incognita race 1 into three 5 cm deep holes approximately 5 cm from each transplant. The plots were irrigated via low-pressure irrigation and fertilized according to local standard. After approximately 10 weeks the plants set fruit and were harvested three times during the following 3 weeks. Number of fruits and weight were taken. All data were subject to ANOVA and mean separation with Fisher's LSD (P=0.05).
# [1] = tested on: root-knot nematodes, Meloidogyne incognita race 1; test: Cucumber green house trial, cucumber seed coating trial 2; type: in vivo; conditions: rkn, mean ± SE
# Experimental: (§1) Pots (10-cm diameter) were filled with 250 g (dry weight) steam-pasteurized river bottom sand. Ten treatments with 6 replications were prepared (Table 1). The fungal antagonist Pochonia chlamydosporia was grown on autoclaved moist millet seed for three weeks at 22° C. Colonized millet was dried in a laminar flow hood, and stored aseptically at 4° C. until use. For soil inoculation, P. chlamydosporia-colonized millet was thoroughly mixed with the sand. Population density of the fungus was approximately 2000 chlamydospores/cc soil for rate 1 and 4000 chlamydospores/cc soil for rate 2.
# (§2) The nematode inoculum was raised during the previous 3 months on tomato plants (Lycopersicum esculentum cv. Tropic) in the greenhouse. Nematode eggs were obtained by standard bleach/sieving extraction. With the exception of the first treatment, each pot was infested with ca. 30000 eggs of M. incognita. This is a typical infestation level for nematicide tests resulting in high disease pressure (expected gall rating for non-treated control at 8 weeks was approximately 7 on a scale of 0-10 (Zeck, Pflanzenschutz-Nachrichten, Bayer AG, 24:141-144, 1971). Cucumber seeds (Cucumis sativus L. cv. Straight Eight, Burpee Seed Co.) were coated with either0.1 mg or 0.3 mg abamectin/seed or received no further treatment. Each pot received slow-release fertilizer (Osmocote Vegetable and Bedding Plant Food, 14-14-14, The Scotts Company) recommended for tomato production. The pots were arranged in a randomized complete block design in a greenhouse at ca. 24°±3° C. and ambient lighting. Irrigation was applied daily as needed. Three and eight weeks after seeding plant height or main vine length was determined. Eight weeks after seeding the trial was terminated and the plant tops were cut off. They were placed in a drying oven overnight and their weight was determined. The roots were placed in eryoglaucin solution overnight and the stained egg masses of the root-knot nematodes were counted. Root galling was rated on a scale of 0-10 (0=no galling). The trial was repeated once.
# [2] = tested on: root-knot nematodes, Meloidogyne incognita race 1; test: Tomato green house trials (data of two trials combined); type: in vivo; conditions: for J2/50 ml soil / Plant dry weight(g) / Plant height(cm) / egg count/root / egg masses/root / Root galling / fruit weight (g) / number of fruits/plant / total fruit weight/plant (g): tomato, rkn, mean ± SE; for J2/50 ml soil / Plant dry weight(g) / Plant height(cm) / egg count/root / egg masses/root / Root galling: trial termination; for Root galling: scale from 0-10; for fruit weight (g): average fruit weight
# Experimental: The greenhouse trials were conducted in pulp pots (10-cm diameter) filled with steam-pasteurized sand (250 cm^3). The biological control organism (BCO) P. chlamydosporia was grown as described above. P. chlamydosporium-inoculated millet seed were washed (1:2 weight/volume millet seed and sterile distilled water, 2 min shaking in electric blender) and passed through a 100-mesh sieve to remove the millet from the fungal chlamydospores. These served as the inoculum and were counted with a counting chamber (Fuchs-Rosenthal). The chlamydospores were thoroughly mixed with the sand. Population density of fungus was approximately 2000 chlamydospores/g soil for rate 1 and 4000 chlamydospores/g soil for rate 2 (Table 1). Tomato seeds (Lycopersicum esculentum cv. Tiny Tim) were coated with either 0.1 mg or 0.3 mg abamectin/seed or received no further treatment (Table 1). The tomato seeds were sown into seeding trays with commercial seedling substrate and after 2 weeks the plants were transplanted into 10-cm pulp pots. With the exception of the first treatment, each pot was infested with ca. 30000 eggs of M. incognita. Egg hatch rate was approximately 10% on Baerman funnels at 26° C. for 5 days. Each pot received slow release fertilizer (Osmocote Vegetable and Bedding Plant food, 14-14-14, The Scotts Company). Pots were arranged in a randomized complete block design with 6 replications per treatment and incubated in greenhouse at ca. 24±3C and ambient lighting. Plants were watered daily as needed. Plant height was determined and the shoots were cut off at the end of the trial. Shoots be placed in a drying oven at 69° C. for 72 h and the weight of each plant was determined. The extent of root galling was assessed on a scale from 0-10 (Zeck, 1971, supra).
# Nematode populations were determined by counting egg masses (=number of fecundate females), eggs and second-stage juvenile (J2). The roots were placed in eryoglaucin solution overnight to stain egg masses of the root-knot nematodes which enabled their enumeration (Omwega et al., 1988). The eggs were released from egg masses through a modified bleach/sieving extraction technique (Hussey and Barker, 1973). Each week, ripe (red) tomato fruits were picked off, and the number and weight were recorded. Picking was continued until fruit production seized. The trial was repeated once. All data were subject to analysis of variation with SuperANOVA (Abacus Concepts, 1989, Berkeley, Calif.). If appropriate, Fisher's Protected Least Significant Difference (LSD) was used to separate means at P=0.05.
# [3] = tested on: root-knot nematodes, Meloidogyne incognita race 1; test: Cucumber green house trial, cucumber seed coating trial 1; type: in vivo; conditions: for main vine length (cm) @ 8 weeks / number egg masses/root / plant dry weight (g) @ 8 weeks / plant height (mm) @ 3 weeks / root galling @ 8 weeks: cucumber, rkn, mean ± SE; for root galling @ 8 weeks: scale 0-10 (0=no galling)
# Experimental: as §1, §2
# [4] = tested on: Meloidogyne incognita race 3; test: Root-knot nematode trial on tomato, abamectin seed coating with soil application of Pasteuria penetrans
# Experimental: Abamectin coated (0.3 mg a.i./seed) and non-treated tomato seed (cv. Kirby) was provided by Syngenta Crop Protection. The treatments were seeded in individual seedling trays. After 3 weeks incubation in a greenhouse at 25°±2° C., the seedlings were transplanted into 1500 cm^3 pots containing the test soil. The soil was collected from a field at the UC South Coast Research and Extension Center at Irvine (San Emigdio sandy loam, 12.5% sand, 12% clay, 75.4% silt, 0.45 OM, pH 7.4). To improve soil aeration and irrigation water drainage, ⅔ of the soil was mixed with ⅓ (v/v) plaster sand. The soil was pasteurized and infested with root-knot nematodes. Meloidogyne incognita race 3 inoculum was reared on tomato cv. UC 82 for ca. three months in greenhouse cultures. Nematode eggs were harvested from the root systems by a modification of a bleach/sieving method (Hussey and Barker, Plant Disease Reporter, 57:1025-1028 (1973)) and used to infested the test soil with 1000 eggs of M. incognita race 3 per 100 cm^3. Pasteuria penetrans was obtained from the University of California Riverside Nematology culture collection. The inoculum was reared on root-knot nematode-infested tomato plants. In the Pasteuria treatments, the soil was amended with approximately 1×10^5 endospores/g soil. The trial was arranged as a complete randomized block with 6 replications and incubated in a greenhouse at 26°±2° C. with ambient light. All pots were fertilized with Osmocote 14-14-14 (label rate for tomato production). Irrigation was applied as needed. Two months after transplanting, plant tops were cut off at the soil level, oven dried and weighted. Roots were rated for galling on a scale of 0-10 (Zeck, Bayer AG, Pflanzenschutz-Nachrichten, 24:141-144 (1971)).
# [5] = tomato miniplots, 10,000 eggs per planting area, mean ± SE, abamectin 0.3 mg/seed
# [6] = abamectin seed coating 0.1 mg/seed
# [7] = abamectin seed coating 0.3 mg/seed
# [8] = tomato cv. Kirby, two months after transplanting, mean ± SE, abamectin seed coated 0.3 mg a.i./seed, P. penetrans soil incorporated 1 × 10E5/g soil
substance,measurement,setting,value
abamectin,yield (in words),"M. incognita race 1; tomato miniplot field trial, abamectin 0.3 mg a.i./seed",increased the yield significantly
same,M. incognita eggs/plant,M. incognita race 1; [5],"171,400 ± 37,100 a"
same,number fruits/plant,M. incognita race 1; [5],69.0 ± 3.2 b
same,root galling at harvest,M. incognita race 1; [5],4.5 ± 0.2 c
same,total fruit weight/plant,M. incognita race 1; [5],290.6 ± 12.6 b
same,main vine length (cm) @ 8 weeks,[1]; [6],146.2 ± 9.8 c cm
same,number egg masses/root system @ 8 weeks,[1]; [6],80.8 ± 27.8 b
same,plant dry weight (g) @ 8 weeks,[1]; [6],6.4 ± 0.5 c g
same,plant height (mm) @ 3 weeks,[1]; [6],96.2 ± 6.4 bcd mm
same,root galling @ 8 weeks (scale 0-10),[1]; [6],5.3 ± 0.2 abc
same,main vine length (cm) @ 8 weeks,[1]; [7],131.3 ± 6.2 bc cm
same,number egg masses/root system @ 8 weeks,[1]; [7],36.7 ± 4.0 a
same,plant dry weight (g) @ 8 weeks,[1]; [7],6.0 ± 0.3 bc g
same,plant height (mm) @ 3 weeks,[1]; [7],105.8 ± 5.3 cde mm
same,root galling @ 8 weeks (scale 0-10),[1]; [7],5.0 ± 0.4 ab
same,root galling reduction (in words),"[2]; tomato greenhouse, abamectin seed coating alone",approximately two rating classes below the check
same,J2/50 ml soil,[2]; [6],20.3 ± 4.3ab
same,Plant dry weight(g),[2]; [6],5.24 ± 0.35b g
same,Plant height(cm),[2]; [6],27.33 ± 0.72cd cm
same,egg count/root,[2]; [6],346133 ± 39003 days
same,egg masses/root,[2]; [6],454.2 ± 62.7c
same,J2/50 ml soil,[2]; [7],7.2 ± 5.4ab
same,Plant dry weight(g),[2]; [7],6.31 ± 0.21c g
same,Plant height(cm),[2]; [7],26.17 ± 2.14bc cm
same,egg count/root,[2]; [7],205867 ± 66056bc
same,egg masses/root,[2]; [7],381.7 ± 120.3c
same,Root galling,[2]; [6],6.67 ± 0.21ef
same,Root galling,[2]; [7],5.00 ± 0.52c
same,fruit weight (g),[2]; [6],5.19 ± 0.18bc g
same,fruit weight (g),[2]; [7],6.00 ± 0.14c g
same,number of fruits/plant,[2]; [6],31.0 ± 4.6bcd
same,total fruit weight/plant (g),[2]; [6],160.3 ± 22.8bc g
same,number of fruits/plant,[2]; [7],40.5 ± 1.5cde
same,total fruit weight/plant (g),[2]; [7],243.3 ± 11.8 g·days
same,plant growth compared to the non-treated control plants (in words),"[3]; cucumber trial 1, 0.3 mg/seed rate of abamectin",significant increases in early plant growth as well as in plant dry weight and main vine length
same,plant growth and root galling (in words),"[3]; cucumber trial 1, low rate of abamectin",neither plant growth was improved nor root galling was significantly reduced
same,main vine length (cm) @ 8 weeks,[3]; [6],100.7 ± 8.8 ab cm
same,number egg masses/root,[3]; [6],108.2 ± 14.0 ab
same,plant dry weight (g) @ 8 weeks,[3]; [6],4.2 ± 0.4 a g
same,plant height (mm) @ 3 weeks,[3]; [6],70.8 ± 2.3 a mm
same,main vine length (cm) @ 8 weeks,[3]; [7],127.8 ± 11.9 cde cm
same,number egg masses/root,[3]; [7],85.8 ± 12.8 ab
same,plant dry weight (g) @ 8 weeks,[3]; [7],5.7 ± 0.4 bc g
same,plant height (mm) @ 3 weeks,[3]; [7],90.8 ± 7.1 bc mm
same,root galling @ 8 weeks,[3]; [6],6.3 ± 0.6 de
same,root galling @ 8 weeks,[3]; [7],5.8 ± 0.4 cde
same,J2/50 cc soil,"[4]; tomato cv. Kirby, trial termination, mean ± SE, abamectin seed coated 0.3 mg a.i./seed, P. penetrans soil incorporated 1 × 10E5/g soil",95 ± 15 b
same,plant top dry weight (g),[4]; [8],31.3 ± 1.8 ab g
same,root gall rating (0-10),[4]; [8],3.3 ± 0.3 ab
same,root galling (in words),"[4]; tomato, abamectin 0.3 mg a.i./seed, P. penetrans 1×10^5 endospores/g soil",reduced galling by approximately two rating classes
